Results taken from US8575091B1, “Amylin analogues and pharmaceutical compositions thereof” (Novo Nordisk A/S, priority 2012, dated 2013).
Entries after “also recorded” stand apart in the source; their conditions may differ. Numbered stars: 1 amine (or outer) side, 2 acyl side, 3 side chain; on linkers, the order of the positions; unused ones are H or OH. Bridge positions count the residues as written; N and C are the ends. Side chains are listed from the residue outwards. Peptide text beside a SMILES is read from it. * marks the point of attachment. C20 diacid = O=C(O)CCCCCCCCCCCCCCCCCCC(=O)*; γGlu = O=C(O)[C@H](CCC(=O)[*:2])N[*:1]

Key:
Wistar rats = assay: Assay (XII) single subcutaneous administration, plasma calcium in rats; format: in vivo, rat; details: for Plasma calcium red (%) 0-12 h: single s.c., maximal reduction 0-12 h, compared to vehicle; for suppression of plasma calcium level relative to vehicle: single subcutaneous, over 24 hours
Description: Assay (XII)—Effect from Single Subcutaneous Administration of Analogue on Plasma Calcium in Rats
Male Wistar rats (Taconic Europe, ˜250 g at test date) were acclimatized to handling prior to the study. Rats were divided in groups of five and subcutaneously dosed with test compound at time=0. At time T=−15 min; 1 h, 2 h, 4 h, 7 h, 12 h, and 24 h a blood sample was obtained and heparin stabilized plasma was analysed for total calcium (Cobas, Hitachi). Data are illustrated in graphs as mean±SEM.

Sprague-Dawley rats = assay: Assay (XI) single subcutaneous administration, food intake monitored for 48 hours in rats; format: in vivo, rat; details: single subcutaneous 30 nmol/kg
Description: Assay (XI)—Effect from Single Subcutaneous Administration of Analogue on […] in Rats
Male Sprague-Dawley rats (Taconic Europe, ˜250 g at test date) were acclimatized to reversed day light cycle (lights on from 10 PM to 10 AM) and single housing in online food intake monitoring system (Ellegaard MBRose, Denmark) prior to study start. Rats were divided in groups of five and subcutaneously dosed with test compound (30 nmol/kg) and food intake was monitored for 48 hours hereafter. Data are illustrated in graphs as mean±SEM.

rat amylin receptor = biological target: T1, rat amylin receptor (Rattus norvegicus, UniProt P32214+Q9JJ73); assay: Assay (VI) binding to the rat amylin receptor; details: rCTR bind IC50 divided by rAmylin-R bind IC50
T1 construct: expressed in transfected cells; host or cells: BHK tk'ts 13 (transient, FuGENE 6), membranes
T1 sequence (P32214 25-479 isoform P32214-2 limits assumed): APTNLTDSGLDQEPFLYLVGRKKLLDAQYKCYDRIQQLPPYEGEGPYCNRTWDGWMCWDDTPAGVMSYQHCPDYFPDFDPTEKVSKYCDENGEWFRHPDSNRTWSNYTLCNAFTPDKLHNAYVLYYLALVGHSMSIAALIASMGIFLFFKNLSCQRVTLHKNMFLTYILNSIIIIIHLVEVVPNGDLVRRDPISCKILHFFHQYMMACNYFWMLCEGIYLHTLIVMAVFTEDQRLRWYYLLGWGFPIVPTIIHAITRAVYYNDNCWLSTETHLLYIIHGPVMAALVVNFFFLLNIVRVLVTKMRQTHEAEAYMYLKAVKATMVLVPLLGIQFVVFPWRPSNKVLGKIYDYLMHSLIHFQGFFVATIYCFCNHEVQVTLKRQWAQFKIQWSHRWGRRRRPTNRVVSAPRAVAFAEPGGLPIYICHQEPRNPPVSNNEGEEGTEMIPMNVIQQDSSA
T1 sequence (Q9JJ73 23-147 partner): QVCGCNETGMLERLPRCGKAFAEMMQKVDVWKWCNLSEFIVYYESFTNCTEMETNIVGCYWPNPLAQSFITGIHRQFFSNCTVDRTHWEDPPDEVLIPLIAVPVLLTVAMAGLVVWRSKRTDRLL
Procedure, shortened: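 Binding as in the human amylin receptor binding assay, but with membranes from BHK tk'ts 13 cells transiently co-transfected with rat calcitonin receptor and rat RAMP 3 […]. Membranes were prepared from cells harvested about 48 hours after transfection.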

[1] = biological target: T2, human calcitonin receptor (Homo sapiens, UniProt P30988); assay: Assay (VII) binding to the human calcitonin receptor (SPA, 125I-Calcitonin); details: read-out: hCTR bind IC50;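 further: cell membranes coupled to SPA beads, competitive displacement read by scintillation counting, IC50 derived from a one-site competition fit as a measure of receptor affinity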
T2 construct: expressed in transfected cells
T2 sequence (P30988 25-474): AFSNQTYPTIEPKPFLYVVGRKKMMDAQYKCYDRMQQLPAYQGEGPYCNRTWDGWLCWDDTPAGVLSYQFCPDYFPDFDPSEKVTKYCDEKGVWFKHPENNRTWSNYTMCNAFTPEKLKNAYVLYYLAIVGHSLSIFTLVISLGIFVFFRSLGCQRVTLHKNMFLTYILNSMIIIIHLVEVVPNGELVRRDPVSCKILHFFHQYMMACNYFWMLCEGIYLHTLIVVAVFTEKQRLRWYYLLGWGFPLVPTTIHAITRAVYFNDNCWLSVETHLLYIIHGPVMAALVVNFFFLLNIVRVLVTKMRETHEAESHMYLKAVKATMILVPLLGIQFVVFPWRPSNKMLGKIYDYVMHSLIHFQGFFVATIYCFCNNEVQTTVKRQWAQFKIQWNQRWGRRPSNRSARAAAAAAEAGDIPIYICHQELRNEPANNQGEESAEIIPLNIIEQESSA

[2] = biological target: T2, human calcitonin receptor; assay: Assay (II)a functional assay, human calcitonin receptor (CRE luciferase, BHK cells);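 further: luminescence from a CRE-driven luciferase reporter, read by single photon counting after cells were exposed to test samples for 3 h at 37 °C under 5% CO2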; format: cell-based; details: read-out: hCTR funct. EC50
[3] = biological target: T3, human amylin receptor (amylin 3(a) receptor: human calcitonin receptor + RAMP-3) (Homo sapiens, UniProt O60896+P30988); assay: Assay (II)a functional assay, human amylin receptor (CRE luciferase, BHK cells); format: cell-based; details: functional assay, human amylin receptor; read-out: hAmylin-R funct. EC50
T3 construct: expressed in transfected cells
T3 sequence (P30988 25-474): T2 sequence (P30988 25-474)
T3 sequence (O60896 24-148 partner): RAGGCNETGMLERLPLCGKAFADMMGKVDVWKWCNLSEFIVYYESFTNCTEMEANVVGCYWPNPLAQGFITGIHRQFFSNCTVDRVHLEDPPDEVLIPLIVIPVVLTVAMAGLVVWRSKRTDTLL

human amylin receptor = biological target: T4, human amylin receptor (Homo sapiens, UniProt O60896+P30988); assay: Assay (V) binding to the human amylin receptor (SPA, 125I-rat amylin); details: human amylin receptor membranes, SPA; read-out: hAmylin-R bind IC50
T4 construct: expressed in transfected cells
T4 sequence (P30988 25-474): T2 sequence (P30988 25-474)
T4 sequence (O60896 24-148 partner): T3 sequence (O60896 24-148 partner)
Procedure, shortened: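 IC50, taken as receptor affinity, came from one-site binding competition analysis of scintillation proximity counts. Amylin 3(a)/CRE-luc cell membranes (35 ng/μL final) were mixed with SPA beads (0.05 mg/well) in 50 mM Hepes pH 7.4 containing CaCl2, MgCl2, 0.1% OA and 0.02% Tween20.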

`CC[C@H](C)[C@H](NC(=O)[C@H](C)NC(=O)CNC(=O)[C@H](Cc1ccccc1)NC(=O)[C@H](CC(N)=O)NC(=O)[C@@H]1CCCN1C(=O)[C@H](CO)NC(=O)[C@H](CO)NC(=O)[C@H](Cc1c[nH]cn1)NC(=O)[C@H](CCCNC(=N)N)NC(=O)[C@H](CC(C)C)NC(=O)[C@H](Cc1ccccc1)NC(=O)[C@H](CCC(=O)O)NC(=O)[C@H](C)NC(=O)[C@H](CC(C)C)NC(=O)[C@H](CCCNC(=N)N)NC(=O)[C@H](CCC(N)=O)NC(=O)[C@@H](NC(=O)[C@H](C)NC(=O)[C@@H]1CSSC[C@H](NC(=O)[C@@H](N)CCCCNC(=O)CC[C@H](NC(=O)CC[C@H](NC(=O)CCCCCCCCCCCCCCCCCCC(=O)O)C(=O)O)C(=O)O)C(=O)N[C@@H](CC(N)=O)C(=O)N[C@@H]([C@@H](C)O)C(=O)N[C@@H](C)C(=O)N[C@@H]([C@@H](C)O)C(=O)N1)[C@@H](C)O)C(=O)N1CCC[C@H]1C(=O)N[C@@H](CO)C(=O)N[C@@H](CO)C(=O)N[C@H](C(=O)N[C@@H](CC(N)=O)C(=O)N[C@H](C(=O)NCC(=O)N1CCC[C@H]1C(=O)N[C@@H](CCCNC(=N)N)C(=O)N[C@H](C(=O)N[C@@H](Cc1ccc(O)cc1)C(N)=O)[C@@H](C)O)C(C)C)[C@@H](C)O` [Example 110] (H-K([γGlu-γGlu-C20 diacid])CNTATCATQRLAEFLRHSSPNFGAIPSSTNVGPRTY-NH2; disulfide 2-7) was tested, and the “Plasma calcium red (%) 0-12 h” value (Wistar rats; 30 nmol/kg) was 8%, the “suppression of plasma calcium level relative to vehicle” value (Wistar rats; 30 nmol/kg) was “None of the example compounds at 30 nmol/kg trigger a notable suppression of the calcium level” and the “food intake monitored over 48 hours versus vehicle” value (Sprague-Dawley rats) was “reduces food intake in rats”.

In the case of `CC[C@H](C)[C@H](NC(=O)[C@H](C)NC(=O)CNC(=O)[C@H](Cc1ccccc1)NC(=O)[C@H](CC(N)=O)NC(=O)[C@@H]1CCCN1C(=O)[C@H](CO)NC(=O)[C@H](CO)NC(=O)[C@H](Cc1c[nH]cn1)NC(=O)[C@H](CCCNC(=N)N)NC(=O)[C@H](CC(C)C)NC(=O)[C@H](Cc1ccccc1)NC(=O)[C@H](CC(N)=O)NC(=O)[C@H](C)NC(=O)[C@H](CC(C)C)NC(=O)[C@H](CCCNC(=N)N)NC(=O)[C@H](CCC(N)=O)NC(=O)[C@@H](NC(=O)[C@H](C)NC(=O)[C@@H]1CSSC[C@H](NC(=O)[C@@H](N)CCCCNC(=O)CC[C@H](NC(=O)CC[C@H](NC(=O)CCCCCCCCCCCCCCCCCCC(=O)O)C(=O)O)C(=O)O)C(=O)N[C@@H](CC(N)=O)C(=O)N[C@@H]([C@@H](C)O)C(=O)N[C@@H](C)C(=O)N[C@@H]([C@@H](C)O)C(=O)N1)[C@@H](C)O)C(=O)N1CCC[C@H]1C(=O)N[C@@H](CO)C(=O)N[C@@H](CO)C(=O)N[C@H](C(=O)N[C@@H](CC(N)=O)C(=O)N[C@H](C(=O)NCC(=O)N[C@@H](Cc1c[nH]cn1)C(=O)N[C@@H](CC(N)=O)C(=O)N[C@H](C(=O)N[C@@H](Cc1ccc(O)cc1)C(N)=O)[C@@H](C)O)C(C)C)[C@@H](C)O` [Example 86] (H-K([γGlu-γGlu-C20 diacid])CNTATCATQRLANFLRHSSPNFGAIPSSTNVGHNTY-NH2; disulfide 2-7 (inferred); N-terminus and C-terminus assumed), the “Plasma calcium red (%) 0-12 h” value (Wistar rats; 30 nmol/kg) is reported as 0%, the “suppression of plasma calcium level relative to vehicle” value (Wistar rats; increasing doses (all doses tested)) is reported as “None of the doses trigger a notable suppression of the calcium level” and the “food intake monitored over 48 hours versus vehicle” value (Sprague-Dawley rats) is reported as “reduces food intake in rats”.

`CC[C@H](C)[C@H](NC(=O)[C@H](C)NC(=O)CNC(=O)[C@H](Cc1ccccc1)NC(=O)[C@H](CC(N)=O)NC(=O)[C@@H]1CCCN1C(=O)[C@H](CO)NC(=O)[C@H](CO)NC(=O)[C@H](Cc1c[nH]cn1)NC(=O)[C@H](CCCNC(=N)N)NC(=O)[C@H](CC(C)C)NC(=O)[C@H](Cc1ccccc1)NC(=O)[C@H](CCC(=O)O)NC(=O)[C@H](C)NC(=O)[C@H](CC(C)C)NC(=O)[C@H](CCCNC(=N)N)NC(=O)[C@H](CCC(N)=O)NC(=O)[C@@H](NC(=O)[C@H](C)NC(=O)[C@@H]1CSSC[C@H](NC(=O)[C@@H](N)CCCCNC(=O)CC[C@H](NC(=O)CC[C@H](NC(=O)CCCCCCCCCCCCCCCCCCC(=O)O)C(=O)O)C(=O)O)C(=O)N[C@@H](CC(N)=O)C(=O)N[C@@H]([C@@H](C)O)C(=O)N[C@@H](C)C(=O)N[C@@H]([C@@H](C)O)C(=O)N1)[C@@H](C)O)C(=O)N1CCC[C@H]1C(=O)N[C@@H](CO)C(=O)N[C@@H](CO)C(=O)N[C@H](C(=O)N[C@@H](CC(N)=O)C(=O)N[C@H](C(=O)NCC(=O)N1CCC[C@H]1C(=O)N[C@@H](Cc1c[nH]cn1)C(=O)N[C@H](C(=O)N[C@@H](Cc1ccc(O)cc1)C(N)=O)[C@@H](C)O)C(C)C)[C@@H](C)O` [Example 124] (H-K([γGlu-γGlu-C20 diacid])CNTATCATQRLAEFLRHSSPNFGAIPSSTNVGPHTY-NH2; disulfide 2-7) was tested, and the “Ratio rCT/rAmylin binding” value (rat amylin receptor; Table 7b) was 73.0, the “Ratio rCT/rAmylin binding” value (rat amylin receptor; Table 7c) was 73.0 and the “Ratio rCT/rAmylin binding” value (rat amylin receptor) was 73.0. For the same molecule, the “Plasma calcium red (%) 0-12 h” value (Wistar rats; 10 nmol/kg) was 3%, the “Plasma calcium red (%) 0-12 h” value (Wistar rats; 30 nmol/kg) was 11% and the IC50 [1] was 10.3 nM. It also gave an EC50 [2] of 2.83 nM, an EC50 [3] of 0.172 nM and an IC50 (human amylin receptor) of 0.377 nM.

`CC(C)C[C@H](NC(=O)[C@H](CCCCN)NC(=O)CNC(=O)[C@H](CC(C)C)NC(=O)[C@@H](NC(=O)[C@@H]1CSSC[C@H](N)C(=O)N[C@@H](CO)C(=O)N[C@@H](CC(N)=O)C(=O)N[C@@H](CC(C)C)C(=O)N[C@@H](CO)C(=O)N[C@@H]([C@@H](C)O)C(=O)N1)C(C)C)C(=O)N[C@@H](CO)C(=O)N[C@@H](CCC(N)=O)C(=O)N[C@@H](CCC(=O)O)C(=O)N[C@@H](CC(C)C)C(=O)N[C@@H](Cc1c[nH]cn1)C(=O)N[C@@H](CCCCN)C(=O)N[C@@H](CC(C)C)C(=O)N[C@@H](CCC(N)=O)C(=O)N[C@H](C(=O)N[C@@H](Cc1ccc(O)cc1)C(=O)N1CCC[C@H]1C(=O)N[C@@H](CCCNC(=N)N)C(=O)N[C@H](C(=O)N[C@@H](CC(N)=O)C(=O)N[C@H](C(=O)NCC(=O)N[C@@H](CO)C(=O)NCC(=O)N[C@H](C(=O)N1CCC[C@H]1C(N)=O)[C@@H](C)O)[C@@H](C)O)[C@@H](C)O)[C@@H](C)O` [salmon calcitonin, reference compound] was tested, and the “Plasma calcium red (%) 0-12 h” value (Wistar rats; 3 nmol/kg) was 35%, the “Plasma calcium red (%) 0-12 h” value (Wistar rats; 30 nmol/kg) was 39% and the “food intake monitored over 48 hours versus vehicle” value (Sprague-Dawley rats) was “reduction of food intake; also recorded: reduces food intake in rats”.
